US9388126B2, “Sigma receptor ligands and methods of modulating cellular protein homeostasis using same” (Drexel University, priority 2012, dated 2016)

Experiments:
Type in all cases: cell-based, human
[1] = tested on: MDA-MB-468 (GFP-LC3) cells; test: GFP-LC3 punctae (autophagosome formation) microscopy assay; conditions: for mean number of punctae per cell: 10 μM
Procedure: The human GFP-LC3 expression plasmid, pEGFP-LC3 (a gift from Drs. Grazia Ambrosini and Gary K. Schwartz, MSKCC), was stably transfected into MDA-MB-468 and selected with 0.5 mg/ml G418 sulfate. Stable populations were generated and compared to parental MDA-MB-468 for Sigma1 expression and autophagic and growth inhibitory response to Sigma ligands. GFP-LC3 translocation (punctae formation) was assessed by microscopy in MDA-MB-468 (GFP-LC3) stable cell populations. For microscopy-based experiments, cells were seeded onto Lab-Tek II glass chamber slides (Nalge Nunc International). […] Images of GFP-LC3 punctae were acquired with a Zeiss Axioplan 2 Imaging widefield microscope using Axiovision LE software. Punctae were counted using the spot quantitation program in the Fluoro-Chem software package (Alpha Innotech) and confirmed in parallel by manual counting. Autophagosome formation in MDAMB-468 (GFP-LC3) cells was quantitated as the mean number of GFP-LC3 punctae per GFP positive cell.
Initially, an established immunoblot-based assay to detect microtubule associated protein light chain 3 (LC3) lipidation was used to test for the activation of autophagy. […] Since transient transfections can produce spurious GFP-LC3 aggregates, stable GFP-LC3 transfected populations of MDA-MB-468 (GFP-LC3) were generated. […]

[2] = tested on: MDA-MB-468 cells; test: Cell size by flow cytometry (mean FSC-H, G1 phase); conditions: 10 μM, 24 hours
Procedure: FIG. 11 is a graph illustrating decrease in MDAMB468 cell size associated with the Sigma1 antagonist treatment. MDA-MB-468 cells were treated for 24 hours with DMSO (control), 10 μM IPAG (antagonist), or 10 μM PRE084 (agonist). Cell size was quantitated by flow cytometry, using a Becton Dickinson FACS Calibur flow cytometer with Cell Quest software. The mean forward scatter height (FSC-H) of the G1-phase population was determined as a measure of relative cell size. Single cells were gated away from aggregated cells using an FL2-width versus FL-2 area dot plot. Mean FSC-H±S.E. was calculated from at least 4 independent determinations. For each FSC-H determination, FACS analysis was performed on 10,000 single cells. The mean FSC-H of DMSO (control) and PRE084 treated MDA-MB-468 measured 370±6 and 372±7, respectively, whereas the mean FSC-H of IPAG treated MDA-MB-468 cells was 323±4. ** P<0.01 for IPAG compared to DMSO and IPAG compared to PRE084.
FIG. 31A is a differential interference contrast (DIC) image of MDA-MB-468 breast adenocarcinoma cells treated for ˜20 hours with DMSO (drug vehicle control), 10 μM IPAG (antagonist) or 10 μM PRE084 (agonist). A twenty-micron bar is shown in each image. Data are presented as mean±SEM. FIG. 31B is a graph illustrating the finding that IPAG diminished the mean cell size (FSC-H) of MDA-MB-468 breast tumor cells in a time-responsive manner. The mean FSC-H of 370±5 at to decreased to 323±4 after 24 hours of IPAG treatment and to 267±2 after 48 hours of treatment. Two-tailed t-tests were performed to determine statistical significance. For IPAG treatment compared to control (DMSO) and Sigma agonists (SKF and PRE084), P=0.0002 at d1 and P=0.00013 at d2. Data were generated from three to five independent determinations for each time-point. […] T-47D were treated for 24 h with 1 and 10 μM IPAG, and mean FSC-H was measured. […] For FIGS. 31B-31E, the mean FSC-H was determined for each cell cycle population (i.e., G1, S, G2/M), and data is shown for G1 phase cells. […]

[3] = tested on: T-47D breast adenocarcinoma cells; test: Cell size by flow cytometry (mean FSC-H, G1 phase); conditions: 10 μM, 24 hours; control 412±5
Procedure: FIG. 31A is a differential interference contrast (DIC) image of MDA-MB-468 breast adenocarcinoma cells treated for ˜20 hours with DMSO (drug vehicle control), 10 μM IPAG (antagonist) or 10 μM PRE084 (agonist). A twenty-micron bar is shown in each image. Data are presented as mean±SEM. FIG. 31B is a graph illustrating the finding that IPAG diminished the mean cell size (FSC-H) of MDA-MB-468 breast tumor cells in a time-responsive manner. The mean FSC-H of 370±5 at to decreased to 323±4 after 24 hours of IPAG treatment and to 267±2 after 48 hours of treatment. Two-tailed t-tests were performed to determine statistical significance. For IPAG treatment compared to control (DMSO) and Sigma agonists (SKF and PRE084), P=0.0002 at d1 and P=0.00013 at d2. Data were generated from three to five independent determinations for each time-point. Flow cytometry was used to measure mean cell size (mean FSC-H) of T-47D breast adenocarcinoma cells. FIG. 31C is a bar graph illustrating T-47D cells treated for 24 hours with 10 μM indicated Sigma ligand. IPAG and BD 1047 (Sigma1 antagonists) diminished cell size from a mean FSC-H of 412±5 for control (DMSO) cells versus 341±7 and 381±8 for IPAG and BD1047 treated cells, respectively. […] Data represent 5 independent determinations (*P<0.05, ***P<0.001). FIG. 31D is a bar graph illustrating how IPAG (antagonist) decreases cell size in a dose responsive manner. T-47D were treated for 24 h with 1 and 10 μM IPAG, and mean FSC-H was measured. FIG. 31E is a graph illustrating that T47D cell size decreases over time. T-47D cells were treated for a total of 48 hours with 10 μM of the indicated Sigma ligands. […] Neither Sigma1 agonist, (+)-SKF10047 and PRE084, altered cell size. […] Two-tailed t-tests were performed to determine statistical significance. For IPAG treatment compared to control (DMSO) and Sigma1 agonists (SKF and PRE084), P=0.0002 at d1 and P<0.0001 at d2. For FIGS. 31B-31E, the mean FSC-H was determined for each cell cycle population (i.e., G1, S, G2/M), and data is shown for G1 phase cells. S and G2/M phase cells responded similarly (data not shown).

[4] = tested on: MCF-7, T47D, DU145, PC3, HepG2 and Panc1 cells; test: LC3BII immunoblot in a range of tumor cell lines; conditions: 10 μM, 24 hours
Procedure: FIG. 36, comprising FIGS. 36A-36C, illustrates Sigma1 antagonist associated autophagy. FIG. 36A, comprises representative images of translocation of GFP-tagged LC3 (LC3-GFP) into autophagosomes in MDA-MB-468 (MDA468) breast adenocarcinoma cells. Only antagonist-treated MDA-MB-468 cells presented LC3-GFP translocation to autophagosomes: […]. […] The images are representative of at least 80 fields for each treatment condition. FIG. 36B is an image of an immunoblot illustrating the finding that formation of GFP-LC3II the formation of GFP-LC3 positive punctae, an indicator of autophagosome formation. Protein extracts from MDA-MB-468 cells stably transfected with and expressing GFP-LC3, treated for 24 hours with 10 μM of the indicated Sigma1 ligand. FIG. 36C comprises images of immunoblots illustrating that increased levels of the microtubule associated protein light chain 3BII isoform (LC3BII) is another broadly used indicator of activated autophagy. […] Legend: MCF-7 (breast adenocarcinoma), T47D (breast adenocarcinoma), DU145 (prostate adenocarcinoma), PC3 (prostate adenocarcinoma), HepG2 (hepatocellular carcinoma), and Panc1 (pancreatic adenocarcinoma).

[5] = tested on: MDA-MB-468 breast adenocarcinoma cells; test: LC3 lipidation (LC3II) immunoblot; conditions: 10 μM, 24 hours
Procedure: Cells were lysed and proteins extracted in a modified RIPA buffer (25 mM Tris-HCl pH 7.6, 150 mM NaCl, 1% NP-40, 1% sodium deoxycholate and 0.1% SDS) supplemented with 10% glycerol (volume/volume), complete protease inhibitor cocktail (Roche), and Halt phosphatase inhibitor cocktail (Pierce). Approximately 10-20 μg of detergent soluble protein were resolved on NOVEX 10-20% polyacrylamide Tris-glycine gels (InVitrogen). Immunoblots were performed in a 20 mM Tris-buffered 137 mM saline solution (pH 7.6) containing 0.1% Tween-20 (polyoxyethylene (20) sorbitan monolaurate) and 5% (weight/volume) blotting grade non-fat dry milk (BioRad). The Lumigen PS-3 enhanced chemiluminescence kit (GE Healthcare) was used to reveal immunoblotted proteins.
Initially, an established immunoblot-based assay to detect microtubule associated protein light chain 3 (LC3) lipidation was used to test for the activation of autophagy. […] Since transient transfections can produce spurious GFP-LC3 aggregates, stable GFP-LC3 transfected populations of MDA-MB-468 (GFP-LC3) were generated. These cells were treated for 24 hours with increasing concentrations of Sigma receptor antagonists and agonists, and were compared to basal and DMSO treated controls (FIGS. 4B & 4C).

[6] = tested on: MCF-7, T47D and MDA-MB-468 cells; test: Cell proliferation by Alamar blue reduction, breast adenocarcinoma cultures; conditions: after 4 days of treatment, six drug concentrations
Source text: In vitro cell proliferation was quantitated by Alamar blue reduction. The anti-proliferative effects of six drug concentrations of the indicated drugs were quantitated after 4 days of treatment.

[7] = tested on: PC3 cells; test: PC3 cell death by trypan blue exclusion; conditions: 5 μM
Procedure: FIG. 1, comprising FIGS. 1A-1B, illustrates prostate adenocarcinoma cell death induced by Sigma1 antagonists. […] Quantitated cell death was presented as the percentage of trypan blue positive cells per drug treated population. Salient cell death occurred following ˜24-48 hours of treatment with the Sigma antagonist.
Cell death was evaluated by trypan blue exclusion assay, as well as cleaved caspase 3 (Asp 175) and cleaved PARP (Asp 214) immunoblot. Trypan blue exclusion and propidium iodide staining were used to quantify general cell death and the presence of apoptotic cell death was confirmed by immunoblot. The percentage of dead cells in a given population was determined by quantifying the number of trypan blue positive (dead) cells and dividing by the total number of trypan blue positive and negative cells.

[8] = tested on: PC3 prostate cancer cells; test: LC3BII immunoblot, prostate cancer cells; conditions: 10 μM, 24 hours
Procedure: FIG. 16, comprising FIGS. 16A-16B, illustrates Sigma antagonist associated autophagy. FIG. 16A illustrates representative images of the translocation of GFP-tagged LC3 (LC3-GFP) into autophagosomes in a control (DMSO) group and a haloperidol-treated group (10 μM, antagonist). FIG. 16B is an image of a gel illustrating increased levels of the microtubule-associated protein light chain 3BII isoform (CL3BII), which is a broadly used indicator of activated autophagy.
Sigma antagonist-induced ER stress led to the activation of autophagy in several tumor cell lines, including PC3 prostate cancer cells (FIG. 16). In preliminary experiments, an immunoblot assay was performed to detect the formation of the lipid-conjugated form of microtubule associated protein light chain 3 (LC3II), a widely used marker of autophagosome formation (FIG. 16).

[9] = tested on: PC3 and DU145 PCa cells; test: UPR induction in prostate cancer cell lines; conditions: preliminary experiments
Source text: FIG. 15 is an image of an immunoblot illustrating induction of UPR in a prostate cancer cell line. […] P-IRE1α indicates phosphorylated IRE1α. Similar results were obtained with DU145 prostate cancer cells.
This might be due to an accumulation of ubiquitylated proteins or due to an increase in ubiquitin ligase activity. Progression of the ER stress response could be monitored by a set of markers, many of which have been directly linked to the UPR. The most extensively investigated sensors that initiate the UPR are IRE1α, PERK, and ATF6, which transduce signals to a cascade of effectors. Many of these UPR 4 effectors function as transcription factors that induce the synthesis of ER chaperones, such as GRP78/BiP and GRP94, involved in maintaining protein homeostasis.

[10] = tested on: PC3 prostate adenocarcinoma cells; test: Ubiquitin (P4D1) immunoblot, prostate adenocarcinoma cells; conditions: 10 μM

Structure (SMILES)	GFP-LC3 punctae per cell ([1]; drug concentrations up to 100 μM, 24 hours)	mean FSC-H (relative cell size) [2]	mean FSC-H (relative cell size) [3]	LC3BII levels [4]	mean number of punctae per cell ([1]; 24 hours, knockdown of Beclin1)	mean number of punctae per cell ([1]; 24 hours, without Beclin1 knockdown)	concentration at which precipitous cell death occurred ([1]; following 24 hours of treatment)	conversion of LC3 to LC3II (autophagosome formation) [5]	inhibition of cell proliferation [6]	treatment time after which salient cell death occurred [7]	LC3BII levels [8]	IRE1α and BiP levels [9]	level of ubiquitinated proteins [10]
O=C(OCCN1CCOCC1)C1(c2ccccc2)CCCCC1 [PRE-084, 2-morpholin-4-ylethyl 1-phenylcyclohexane-1-carboxylate]	no more than 6±2 punctae per cell	372±7	did not alter cell size	did not significantly alter basal autophagy	–	–	–	–	–	–	–	–	–
O=C(CCCN1CCC(O)(c2ccc(Cl)cc2)CC1)c1ccc(F)cc1 [haloperidol, 4-[4-(4-chlorophenyl)-4-hydroxy-1-piperidyl]-1-(4-fluorophenyl)-butan-1-one]	–	–	–	–	17±1 punctae per cell	36±4 punctae per cell	40 µM	converted LC3 to LC3II	also inhibited cell proliferation	24 to 48 h	salient induction of LC3BII levels	salient induction of IRE1α and BiP levels	increased level of ubiquinated proteins
